Read-outs that look alike come from different tables or passages of the source.
Key:
[1] = Presence or absence of pyrrolizidine alkaloid signals (UPLC-HRMS) in doped lemon, orange and eucalyptus essential oils after hydrodistillation; assay type: physicochemical; conditions: for profils UPLC-MS ciblés: presence in huile essentielle avec standards et distillée: huile essentielle de citron, likewise essences d'orange et d'eucalyptus (figure 1, figure 2); for signaux dans la phase organique recueillie après hydrodistillation: huiles essentielles de citron, d'orange et d'eucalyptus dopées jusqu'à 100 ppm, 2 h hydrodistillation, UPLC-HRMS/TOF
Protocol: (§1) Dans un ballon de 500 mL, on introduit 300 mL d'eau distillée, un barreau magnétique, quelques pierres ponces et une quantité pesée d'échantillon entre 15 et 30 g.
(§2) Le ballon est alors raccordé à un appareil de type Clevenger et placé dans un bain d'huile chauffant.
(§3) On ajoute 10 mL d'eau distillée et 4 à 5 mL de pentane afin de remplir le séparateur.
(§4) On ouvre l'arrivée d'eau pour le réfrigérant et on porte à reflux pendant deux heures.
(§5) On arrête alors le chauffage et on laisse décanter. La phase organique et la phase aqueuse décantent dans le séparateur et sont recueillies.
(§6) […]. Conditions HR-TOF-MS : Les analyses ont été effectuées sur un système Waters XEVO G2 TOF. Conditions de source ESI : tension capillaire : 0,5 kV, tension de cône : 45 V, cône d'extraction : 4 V, température de source : 120 °C, température de désolvatation : 400 °C, débit de gaz : 10 L/h, débit de gaz de désolvatation : 1200 L/h. Les analyses ont été effectuées en mode positif. Le spectromètre de masse a été étalonné avec du formiate de sodium pour une gamme de masse allant de 50 à 1200 Da. La Leucine-Enképhaline (lockmass) est le standard utilisé pour corriger les masses. Les deux masses caractéristiques de la Leucine-Enképhaline ont été vérifiées (278,1141; 556,2771). Les acquisitions ont été réalisées en mode MSE en utilisant l'argon comme gaz de collision. Fragmentation : Le mode MSE permet l'acquisition simultanée de spectres de masse à l'énergie de collision faible et élevée, le premier permettant d'obtenir un ion parent, le dernier de produire des ions fragments.
(§7) Après dilution des extraits d'huile essentielle dans du méthanol, les alcaloïdes pyrrolizidiniques sont chromatographiés par système RP-UPLC, en mode gradient d'élution, détectés et identifiés par spectrométrie de masse et quantifiés par une méthode d'étalonnage externe.
(§8) Dans une fiole jaugée de 20 mL, on pèse exactement 1 g (Pe) de l'échantillon et on ajuste avec du méthanol. La solution est homogénéisée pendant 3 min avec un bain à ultrasons, puis filtrée à l'aide d'une seringue sur un filtre en PTFE de 0,25 µm, puis transférée dans un flacon d'injection.
Afin de démontrer le principe de l'invention, une étude quantitative destinée à montrer la présence ou l'absence d'alcaloïdes pyrrolizidiniques dans des échantillons d'huile essentielle enrichis en alcaloïdes pyrrolizidiniques a été réalisée avant et après hydrodistillation.
Dans cette étude, on a utilisé des alcaloïdes pyrrolizidiniques disponibles commercialement et représentant deux classes précédemment décrites de type II et IV, à savoir : alcaloïde type cyclique (classe la plus représentée) pour la sénécionine, sénécionine-N-oxyde [13268-67-2], rétrorsine, rétrorsine-N-oxyde [15503-86-3], jacobine [3870-67-3], jacobine-N-oxyde [38710-25-7], sénéciphylline, sénéciphylline-N-oxyde [38710-26-8], et alcaloïde type mono-ester pour la lycopsamine [10285-07-1], lycopsamine-N-oxyde [95462-15-0], intermédine [10285-06-0], intermédine-N-oxyde [95462-14-9].
(§9) Trois huiles essentielles de citron, d'orange et d'eucalyptus, dopées jusqu'à 100 ppm de chacun des alcaloïdes pyrrolizidiniques et de leurs oxydes respectifs, ont été hydrodistillées séparément pendant deux heures selon le protocole décrit à l'exemple 1. L'expérimentation est réalisée en duplicat.
(§10) Avant et après hydrodistillation, les phases organique et aqueuse sont séparées et injectées en UPLC-HRMS/TOF.

[2] = Hydrodistillation of lemon essential oil doped with pyrrolizidine alkaloids; alkaloids assayed in distillate and aqueous phase by UPLC-HRMS/TOF; assay type: physicochemical; conditions: for φ Aqueuse (résidu de distillation) CT [ppm]: Concentration théorique; for φ Aqueuse (résidu de distillation) C [ppm] / φ Organique (distillat) C [ppm]: after 2 h hydrodistillation; for φ Organique (distillat) C [ppm]: LOQ : 2 ppb
Protocol: as §1, §2, §3, §4, §5, §6, §7
Des solutions standards d'alcaloïdes pyrrolizidiniques sont préparées comme suit : Dans une fiole jaugée de 100 mL (Vf), on pèse exactement 10 mg (Ms) des substances étalons et on ajuste avec du méthanol. Les solutions sont homogénéisées avec un bain à ultrasons pendant 3 min.
La concentration de la solution standard est donnée par l'équation suivante : C (mg/mL) = (Ms×Pu)/(100×Vf) [formula] • Ms = Poids de la substance standard • Pu = Pureté de la substance étalon en pourcentage
Ensuite, cette solution mère est diluée jusqu'à obtenir les concentrations appropriées pour la sensibilité du détecteur.
as §8
Si nécessaire, cette solution doit être successivement diluée pour tomber dans une plage de linéarité appropriée du détecteur.
as §9, §10

[3] = system: rat; conditions: cited from earlier work
[4] = Tableau 3, Huile essentielle de Citron dopée, (duplicate 2)
[5] = Tableau 3, Huile essentielle de Citron dopée, duplicate 1
[6] = Tableau 4, Huile essentielle de Citron dopée (as titled), (duplicate 2)
[7] = Tableau 4, Huile essentielle de Citron dopée (as titled), duplicate 1
[8] = administrés régulièrement par voie orale

CC(C)[C@](O)(C(=O)OCC1=CCN2CC[C@@H](O)[C@@H]12)[C@@H](C)O (stereo in doubt) [Lycopsamine]
profils UPLC-MS ciblés: presence in huile essentielle avec standards et distillée [1]: absentes
signaux dans la phase organique recueillie après hydrodistillation [1]: absence des signaux
φ Aqueuse (résidu de distillation) CT [ppm] [2, 4]: 0,626 ppm
φ Aqueuse (résidu de distillation) CT [ppm] [2, 5]: 0,656 ppm
φ Aqueuse (résidu de distillation) C [ppm] [2, 4]: 0,698 ppm
φ Organique (distillat) C [ppm] [2, 4]: < LoQ
φ Aqueuse (résidu de distillation) C [ppm] [2, 5]: 0,678 ppm
φ Organique (distillat) C [ppm] [2, 5]: < LoQ
φ Aqueuse (résidu de distillation) CT [ppm] [2, 6]: 0.597 ppm
φ Aqueuse (résidu de distillation) CT [ppm] [2, 7]: 0.550 ppm
φ Aqueuse (résidu de distillation) C [ppm] [2, 6]: 0.621 ppm
φ Organique (distillat) C [ppm] [2, 6]: < LoQ
φ Aqueuse (résidu de distillation) C [ppm] [2, 7]: 0.588 ppm
φ Organique (distillat) C [ppm] [2, 7]: < LoQ

CC(C)[C@@](O)(C(=O)OCC1=CC[N+]2([O-])CC[C@@H](O)[C@@H]12)[C@H](C)O (stereo partly drawn) [Lycopsamine-N-oxyde]
signaux dans la phase organique recueillie après hydrodistillation [1]: absence des signaux
φ Aqueuse (résidu de distillation) CT [ppm] [2, 6]: 0.030 ppm
φ Aqueuse (résidu de distillation) CT [ppm] [2, 7]: 0.028 ppm
φ Aqueuse (résidu de distillation) C [ppm] [2, 6]: 0.027 ppm
φ Organique (distillat) C [ppm] [2, 6]: < LoQ
φ Aqueuse (résidu de distillation) C [ppm] [2, 7]: 0.024 ppm
φ Organique (distillat) C [ppm] [2, 7]: < LoQ

C/C=C1/C[C@@H](C)[C@](O)(CO)C(=O)OCC2=CC[N@@+]3([O-])CC[C@@H](OC1=O)[C@@H]23 [Rétrorsine-N-oxyde]
profils UPLC-MS ciblés: presence in huile essentielle avec standards et distillée [1]: absentes
signaux dans la phase organique recueillie après hydrodistillation [1]: absence des signaux
φ Aqueuse (résidu de distillation) CT [ppm] [2, 4]: 0,621 ppm
φ Aqueuse (résidu de distillation) CT [ppm] [2, 5]: 0,662 ppm
φ Aqueuse (résidu de distillation) C [ppm] [2, 4]: 0,605 ppm
φ Organique (distillat) C [ppm] [2, 4]: < LoQ
φ Aqueuse (résidu de distillation) C [ppm] [2, 5]: 0,691 ppm
φ Organique (distillat) C [ppm] [2, 5]: < LoQ
φ Aqueuse (résidu de distillation) CT [ppm] [2, 6]: 0.593 ppm
φ Aqueuse (résidu de distillation) CT [ppm] [2, 7]: 0.457 ppm
φ Aqueuse (résidu de distillation) C [ppm] [2, 6]: 0.612 ppm
φ Organique (distillat) C [ppm] [2, 6]: < LoQ
φ Aqueuse (résidu de distillation) C [ppm] [2, 7]: 0.678 ppm
φ Organique (distillat) C [ppm] [2, 7]: < LoQ

C/C=C1\C[C@@H](C)[C@](O)(CO)C(=O)OCC2=CCN3CC[C@@H](OC1=O)[C@@H]23 [Rétrorsine]
profils UPLC-MS ciblés: presence in huile essentielle avec standards et distillée [1]: absentes
signaux dans la phase organique recueillie après hydrodistillation [1]: absence des signaux
φ Aqueuse (résidu de distillation) CT [ppm] [2, 4]: 0,868 ppm
φ Aqueuse (résidu de distillation) CT [ppm] [2, 5]: 0,806 ppm
φ Aqueuse (résidu de distillation) C [ppm] [2, 4]: 0,839 ppm
φ Organique (distillat) C [ppm] [2, 4]: < LoQ
φ Aqueuse (résidu de distillation) C [ppm] [2, 5]: 0,810 ppm
φ Organique (distillat) C [ppm] [2, 5]: < LoQ
φ Aqueuse (résidu de distillation) CT [ppm] [2, 6]: 0.828 ppm
φ Aqueuse (résidu de distillation) CT [ppm] [2, 7]: 0.797 ppm
φ Aqueuse (résidu de distillation) C [ppm] [2, 6]: 0.711 ppm
φ Organique (distillat) C [ppm] [2, 6]: < LoQ
φ Aqueuse (résidu de distillation) C [ppm] [2, 7]: 0.663 ppm
φ Organique (distillat) C [ppm] [2, 7]: < LoQ
tumeurs hépatiques [3, 8]: provoquer des tumeurs hépatiques

CC(C)[C@@](O)(C(=O)OCC1=CC[N+]2([O-])CC[C@@H](O)[C@@H]12)[C@@H](C)O (stereo partly drawn) [intermédine-N-oxyde]
signaux dans la phase organique recueillie après hydrodistillation [1]: absence des signaux

C[C@@H]1C[C@@]2(O[C@H]2C)C(=O)O[C@@H]2CC[N+]3([O-])CC=C(COC(=O)[C@]1(C)O)[C@H]23 (stereo partly drawn) [jacobine-N-oxyde]
signaux dans la phase organique recueillie après hydrodistillation [1]: absence des signaux

C[C@@H]1C[C@@]2(O[C@H]2C)C(=O)O[C@@H]2CCN3CC=C(COC(=O)[C@]1(C)O)[C@H]23 [jacobine]
signaux dans la phase organique recueillie après hydrodistillation [1]: absence des signaux

C[C@H]1C(=O)O[C@@H]2CCN3CC=C(COC(=O)[C@](C)(O)[C@]1(C)O)[C@H]23 [monocrotaline]
tumeurs hépatiques ([3]; in vivo): provoquer des tumeurs hépatiques

C/C=C1/C[C@@H](C)[C@@](C)(O)C(=O)OC/C2=C/CN(C)CC[C@@H](OC1=O)C2=O [senkirkine]
tumeurs hépatiques [3, 8]: provoquer des tumeurs hépatiques

C/C=C(\C)C(=O)O[C@@H]1CCN2CC=C(COC(=O)[C@](O)(C(C)C)[C@H](C)O)[C@H]12 [symphytine]
tumeurs hépatiques [3, 8]: provoquer des tumeurs hépatiques

C=C1C/C(=C/C)C(=O)O[C@@H]2CCN3CC=C(COC(=O)[C@]1(C)O)[C@H]23 [séneciphylline, sénéciphylline]
signaux dans la phase organique recueillie après hydrodistillation [1]: absence des signaux

C=C1C/C(=C/C)C(=O)O[C@@H]2CC[N+]3([O-])CC=C(COC(=O)[C@]1(C)O)[C@H]23 (stereo partly drawn) [séneciphylline-N-oxyde, sénéciphylline-N-oxyde]
signaux dans la phase organique recueillie après hydrodistillation [1]: absence des signaux

C/C=C1/C[C@@H](C)[C@@](C)(O)C(=O)OCC2=CC[N+]3([O-])CC[C@@H](OC1=O)[C@@H]23 (stereo partly drawn) [sénécionine-N-oxyde]
signaux dans la phase organique recueillie après hydrodistillation [1]: absence des signaux

C/C=C1/C[C@@H](C)[C@@](C)(O)C(=O)OCC2=CCN3CC[C@@H](OC1=O)[C@@H]23 [sénécionine]
signaux dans la phase organique recueillie après hydrodistillation [1]: absence des signaux

From EP3922633B1, “METHOD FOR EXTRACTING PYRROLIZIDINE ALKALOIDS” (priority 2020, dated 2021)
